Results reported in patent US5530126A, “Process for the preparation of substituted 6-(pyrazol-3yl)-1,4-benzoxazin-3-ones” (Monsanto Company, priority 1994, dated 1996).

Key:
Assay type in all cases: in vivo
Morningglory [1] = assay: Post-emergence herbicide test; details: Ipomoea, read-out: % plant inhibition (Mogl); for inhibition at 11210 g/ha: 11.21 kg/ha; for inhibition at 1120 g/ha: 1.12 kg/ha
Text: (§1) Topsoil is placed in aluminum pans having holes in the bottom and compacted to a depth of 0.95 to 1.27 cm from the top of the pan. A predetermined number of seeds of each of several dicotyledonous and monocotyledonous annual plant species and/or vegetative propagules for the perennial plant species are placed on the soil and pressed into the soil surface. The seeds and/or vegetative propagules are covered with soil and leveled. The pans are then placed on a bench in the greenhouse and watered from below as needed. After the plants reach the desired age (two to three weeks), each pan, is removed individually to a spraying chamber and sprayed by means of an atomizer, operating at a spray pressure of 170.3 kPa (10 psig) at the application rates noted. In the spray solution is an amount of an emulsifying agent mixture to give a spray solution or suspension which contains about 0.4% by volume of the emulsifier. The spray solution or suspension contains a sufficient amount of the candidate chemical in order to give application rates of the active ingredient corresponding to those shown in Tables 8 and 8A, while applying a total amount of solution or suspension equivalent to 1870 L/Ha (200 gallons/acre). The pans were returned to the greenhouse and watered as before and the injury to the plants as compared to the control is observed at approximately 10-14 days (usually 11 days) and in some instances observed again at 24-28 days (usually 25 days) after spraying. The post-emergent herbicidal activity shown in these tables is the percent inhibition of each plant species.

Barnyardgrass [2] = assay: Post-emergence herbicide test; details: Echinochloa crus-galli, read-out: % plant inhibition (Bygr); for inhibition at 11210 g/ha: 11.21 kg/ha; for inhibition at 1120 g/ha: 1.12 kg/ha
Text: as §1

Indian Mustard [3] = assay: Post-emergence herbicide test; details: Brassica juncea, read-out: % plant inhibition (Inmu); for inhibition at 11210 g/ha: 11.21 kg/ha; for inhibition at 1120 g/ha: 1.12 kg/ha
Text: as §1

Wild buckwheat [4] = assay: Post-emergence herbicide test; details: Fallopia convolvulus, read-out: % plant inhibition (Wibw); for inhibition at 11210 g/ha: 11.21 kg/ha; for inhibition at 1120 g/ha: 1.12 kg/ha
Text: as §1

Seedling johnsongrass [5] = assay: Post-emergence herbicide test; details: Sorghum halepense, read-out: % plant inhibition (Sejg); for inhibition at 11210 g/ha: 11.21 kg/ha; for inhibition at 1120 g/ha: 1.12 kg/ha
Text: as §1

Downy Brome [6] = assay: Post-emergence herbicide test; details: Bromus tectorum, read-out: % plant inhibition (Dobr); for inhibition at 11210 g/ha: 11.21 kg/ha; for inhibition at 1120 g/ha: 1.12 kg/ha
Text: as §1

Yellow nutsedge [7] = assay: Post-emergence herbicide test; details: Cyperus, read-out: % plant inhibition (Yens); for inhibition at 11210 g/ha: 11.21 kg/ha; for inhibition at 1120 g/ha: 1.12 kg/ha
Text: as §1

Annual bluegrass [8] = assay: Post-emergence herbicide test; details: read-out: % plant inhibition (Anbg); for inhibition at 11210 g/ha: 11.21 kg/ha; for inhibition at 1120 g/ha: 1.12 kg/ha
Text: as §1

Cocklebur [9] = assay: Post-emergence herbicide test; details: Xanthium strumarium, read-out: % plant inhibition (Cobu); for inhibition at 11210 g/ha: 11.21 kg/ha; for inhibition at 1120 g/ha: 1.12 kg/ha
Text: as §1

Velvetleaf [10] = assay: Post-emergence herbicide test; details: Abutilon theophrasti, read-out: % plant inhibition (Vele); for inhibition at 11210 g/ha: 11.21 kg/ha; for inhibition at 1120 g/ha: 1.12 kg/ha
Text: as §1

Morningglory [11] = assay: Pre-emergence herbicide test; details: Ipomoea, read-out: % plant inhibition (Mogl); for inhibition at 11210 g/ha: 11.21 kg/ha; for inhibition at 1120 g/ha: 1.12 kg/ha
Experimental: (§2) The tests for pre-emergence herbicide activity are conducted as follows:
(§3) Topsoil is placed in an aluminum pan and compacted to a depth of 0.95 to 1.27 cm from the top of the pan. On the top of the soil is placed a predetermined number of seeds of each of several monocotyledonous and dicotyledonous annual plant species and/or vegetative propagules of various perennial plant species. A known amount of the active ingredient dissolved or suspended in an organic solvent, e.g., acetone, or water as carrier is then applied directly to the seed bed, which is then covered with a layer of untreated topsoil to level fill the pan. After treatment, the pans are moved to a greenhouse bench where they are watered from below as needed to give adequate moisture for germination and growth.
(§4) Approximately 10-14 days (usually 11 days) after seeding and treating, the pans are observed and the results (% inhibition) are recorded.
(§5) Tables 7 and 7A below summarize the results of the pre-emergence herbicidal activity tests of compounds of this invention in weeds. The herbicidal rating shown in these tables is the percent inhibition of each plant species. The plant species usually regarded as weeds which are utilized in one set of tests, the data for which are shown in the tables, are identified by letter headings above the columns in accordance with the following legend: […]

Barnyardgrass [12] = assay: Pre-emergence herbicide test; details: Echinochloa crus-galli, read-out: % plant inhibition (Bygr); for inhibition at 11210 g/ha: 11.21 kg/ha; for inhibition at 1120 g/ha: 1.12 kg/ha
Experimental: as §2, §3, §4, §5

Indian Mustard [13] = assay: Pre-emergence herbicide test; details: Brassica juncea, read-out: % plant inhibition (Inmu); for inhibition at 11210 g/ha: 11.21 kg/ha; for inhibition at 1120 g/ha: 1.12 kg/ha
Experimental: as §2, §3, §4, §5

Wild buckwheat [14] = assay: Pre-emergence herbicide test; details: Fallopia convolvulus, read-out: % plant inhibition (Wibw); for inhibition at 11210 g/ha: 11.21 kg/ha; for inhibition at 1120 g/ha: 1.12 kg/ha
Experimental: as §2, §3, §4, §5

Seedling johnsongrass [15] = assay: Pre-emergence herbicide test; details: Sorghum halepense, read-out: % plant inhibition (Sejg); for inhibition at 11210 g/ha: 11.21 kg/ha; for inhibition at 1120 g/ha: 1.12 kg/ha
Experimental: as §2, §3, §4, §5

Downy Brome [16] = assay: Pre-emergence herbicide test; details: Bromus tectorum, read-out: % plant inhibition (Dobr); for inhibition at 11210 g/ha: 11.21 kg/ha; for inhibition at 1120 g/ha: 1.12 kg/ha
Experimental: as §2, §3, §4, §5

Yellow nutsedge [17] = assay: Pre-emergence herbicide test; details: Cyperus, read-out: % plant inhibition (Yens); for inhibition at 11210 g/ha: 11.21 kg/ha; for inhibition at 1120 g/ha: 1.12 kg/ha
Experimental: as §2, §3, §4, §5

Annual bluegrass [18] = assay: Pre-emergence herbicide test; details: read-out: % plant inhibition (Anbg); for inhibition at 11210 g/ha: 11.21 kg/ha; for inhibition at 1120 g/ha: 1.12 kg/ha
Experimental: as §2, §3, §4, §5

Cocklebur [19] = assay: Pre-emergence herbicide test; details: Xanthium strumarium, read-out: % plant inhibition (Cobu); for inhibition at 11210 g/ha: 11.21 kg/ha; for inhibition at 1120 g/ha: 1.12 kg/ha
Experimental: as §2, §3, §4, §5

Velvetleaf [20] = assay: Pre-emergence herbicide test; details: Abutilon theophrasti, read-out: % plant inhibition (Vele); for inhibition at 11210 g/ha: 11.21 kg/ha; for inhibition at 1120 g/ha: 1.12 kg/ha
Experimental: as §2, §3, §4, §5

Compound	inhibition at 11210 g/ha (Morningglory [1]) [%]	inhibition at 11210 g/ha (Barnyardgrass [2]) [%]	inhibition at 11210 g/ha (Indian Mustard [3]) [%]	inhibition at 11210 g/ha (Wild buckwheat [4]) [%]	inhibition at 11210 g/ha (Seedling johnsongrass [5]) [%]	inhibition at 11210 g/ha (Downy Brome [6]) [%]	inhibition at 11210 g/ha (Yellow nutsedge [7]) [%]	inhibition at 11210 g/ha (Annual bluegrass [8]) [%]	inhibition at 11210 g/ha (Cocklebur [9]) [%]	inhibition at 11210 g/ha (Velvetleaf [10]) [%]	inhibition at 11210 g/ha (Morningglory [11]) [%]	inhibition at 11210 g/ha (Barnyardgrass [12]) [%]	inhibition at 11210 g/ha (Indian Mustard [13]) [%]	inhibition at 11210 g/ha (Wild buckwheat [14]) [%]	inhibition at 11210 g/ha (Seedling johnsongrass [15]) [%]	inhibition at 11210 g/ha (Downy Brome [16]) [%]	inhibition at 11210 g/ha (Yellow nutsedge [17]) [%]	inhibition at 11210 g/ha (Annual bluegrass [18]) [%]	inhibition at 11210 g/ha (Cocklebur [19]) [%]	inhibition at 11210 g/ha (Velvetleaf [20]) [%]	also measured
Cn1nc(C(F)(F)F)c(Cl)c1-c1ccc(F)cc1F [Compound 75]	10	0	0	60	0	0	0	0	0	0	90	20	30	50	50	20	20	0	10	80	–
Cn1nc(C(F)(F)F)c(Cl)c1-c1cc(F)ccc1F [Compound 69]	10	0	0	0	0	0	0	0	0	10	30	0	0	0	0	0	0	0	0	50	–
COC(=O)C=Cc1cc(-c2nn(C)c(C(F)(F)F)c2Cl)c(F)cc1Cl [Compound 128, 3-(2-chloro-5-(4-chloro-1-methyl-5-(trifluoromethyl)-1H-pyrazol-3-yl)-4-fluorophenyl)propenoic acid, methyl ester]	–	–	–	–	–	–	–	–	–	–	–	–	–	–	–	–	–	–	–	–	inhibition at 1120 g/ha (Morningglory [1]): 100%; inhibition at 1120 g/ha (Barnyardgrass [2]): 50%; inhibition at 1120 g/ha (Indian Mustard [3]): 90%; inhibition at 1120 g/ha (Wild buckwheat [4]): 100%; inhibition at 1120 g/ha (Seedling johnsongrass [5]): 100%; inhibition at 1120 g/ha (Downy Brome [6]): 100%; inhibition at 1120 g/ha (Yellow nutsedge [7]): 20%; inhibition at 1120 g/ha (Annual bluegrass [8]): 30%; inhibition at 1120 g/ha (Cocklebur [9]): 100%; inhibition at 1120 g/ha (Velvetleaf [10]): 100%; inhibition at 1120 g/ha (Morningglory [11]): 80%; inhibition at 1120 g/ha (Barnyardgrass [12]): 0%; inhibition at 1120 g/ha (Indian Mustard [13]): 70%; inhibition at 1120 g/ha (Wild buckwheat [14]): 100%; inhibition at 1120 g/ha (Seedling johnsongrass [15]): 30%; inhibition at 1120 g/ha (Downy Brome [16]): 0%; inhibition at 1120 g/ha (Yellow nutsedge [17]): 0%; inhibition at 1120 g/ha (Annual bluegrass [18]): 0%; inhibition at 1120 g/ha (Cocklebur [19]): 70%; inhibition at 1120 g/ha (Velvetleaf [20]): 100%
Cn1nc(-c2ccc([N+](=O)[O-])cc2)c(Cl)c1C(F)(F)F [Compound 81]	60	70	10	90	70	10	50	0	40	80	30	60	20	100	90	80	0	60	20	90	–
CC(C)CCOC(=O)COc1cc(-c2nn(C)c(C(F)(F)F)c2Cl)c(F)cc1Cl [Compound 288]	–	–	–	–	–	–	–	–	–	–	–	–	–	–	–	–	–	–	–	–	inhibition at 1120 g/ha (Morningglory [1]): 100%; inhibition at 1120 g/ha (Barnyardgrass [2]): 50%; inhibition at 1120 g/ha (Indian Mustard [3]): 90%; inhibition at 1120 g/ha (Wild buckwheat [4]): 100%; inhibition at 1120 g/ha (Seedling johnsongrass [5]): 20%; inhibition at 1120 g/ha (Downy Brome [6]): 0%; inhibition at 1120 g/ha (Yellow nutsedge [7]): 10%; inhibition at 1120 g/ha (Annual bluegrass [8]): 0%; inhibition at 1120 g/ha (Cocklebur [9]): 100%; inhibition at 1120 g/ha (Velvetleaf [10]): 100%; inhibition at 1120 g/ha (Morningglory [11]): 100%; inhibition at 1120 g/ha (Barnyardgrass [12]): 0%; inhibition at 1120 g/ha (Indian Mustard [13]): 20%; inhibition at 1120 g/ha (Wild buckwheat [14]): 90%; inhibition at 1120 g/ha (Seedling johnsongrass [15]): 0%; inhibition at 1120 g/ha (Downy Brome [16]): 0%; inhibition at 1120 g/ha (Yellow nutsedge [17]): 0%; inhibition at 1120 g/ha (Annual bluegrass [18]): 0%; inhibition at 1120 g/ha (Cocklebur [19]): 30%; inhibition at 1120 g/ha (Velvetleaf [20]): 100%
Cn1nc(-c2cc(C3OCCO3)c(Cl)cc2F)c(Cl)c1C(F)(F)F [Compound 100, 4-chloro-3-(4-chloro-5-(1,3-dioxolan-2-yl)-2-fluorophenyl)-1-methyl-5-(trifluoromethyl)-1H-pyrazole]	–	–	–	–	–	–	–	–	–	–	–	–	–	–	–	–	–	–	–	–	inhibition at 1120 g/ha (Morningglory [1]): 100%; inhibition at 1120 g/ha (Barnyardgrass [2]): 100%; inhibition at 1120 g/ha (Indian Mustard [3]): 80%; inhibition at 1120 g/ha (Wild buckwheat [4]): 100%; inhibition at 1120 g/ha (Seedling johnsongrass [5]): 100%; inhibition at 1120 g/ha (Downy Brome [6]): 100%; inhibition at 1120 g/ha (Yellow nutsedge [7]): 20%; inhibition at 1120 g/ha (Annual bluegrass [8]): 100%; inhibition at 1120 g/ha (Cocklebur [9]): 80%; inhibition at 1120 g/ha (Velvetleaf [10]): 100%; inhibition at 1120 g/ha (Morningglory [11]): 80%; inhibition at 1120 g/ha (Barnyardgrass [12]): 70%; inhibition at 1120 g/ha (Indian Mustard [13]): 100%; inhibition at 1120 g/ha (Wild buckwheat [14]): 100%; inhibition at 1120 g/ha (Seedling johnsongrass [15]): 90%; inhibition at 1120 g/ha (Downy Brome [16]): 100%; inhibition at 1120 g/ha (Yellow nutsedge [17]): 0%; inhibition at 1120 g/ha (Annual bluegrass [18]): 90%; inhibition at 1120 g/ha (Cocklebur [19]): 20%; inhibition at 1120 g/ha (Velvetleaf [20]): 100%
Cn1nc(C(F)(F)Cl)c(Cl)c1-c1ccc(Cl)cc1 [Compound 67]	70	40	40	100	80	40	20	20	20	80	90	0	50	90	40	40	0	40	0	80	–
Cn1nc(C(F)(F)F)c(Cl)c1-c1ccc(Cl)cc1F [Compound 79]	60	20	90	100	30	20	10	60	20	100	100	80	100	100	80	80	20	90	30	100	–
